From patent publication US20230092001A1, “FURANEOL GLYCOSIDE COMPOUND, PHARMACEUTICAL COMPOSITION THEREOF, PREPARATION METHOD THEREFOR, AND APPLICATION THEREOF” (priority 2019, published 2023)

Columns and labels:
[1] = test system: ulcerative colitis model (dextran sodium sulphate); assay: Effect Example 3: therapeutic effect on ulcerative colitis, dextran sodium sulphate model, oral gavage, 7 days; format: in vivo, C57 mice; conditions: 40 mg/kg oral gavage
Experimental: Fifty 10-week-old male C57 mice, SPF class animal house, temperature 20-26° C., humidity 40%-70%, alternating light-dark periods (12 h/12 h).
(§1) Quarantine-qualified animals with similar weights were selected for the experiment.
Mice in the blank control group were given normal drinking water throughout the experiment. The other 9 groups of mice were given drinking water containing 2% dextran sodium sulphate from day 1 to day 7. All groups were administered by oral gavage once a day according to table 10, until the end of the experiment.
(§2) (1) The mice were weighed daily.
(2) Blood samples were collected from the orbital vein on day 7 and stored at −80° C.
(3) On day 7, the mice were sacrificed by cervical vertebra dislocation, the colon was removed and a small amount of fecal was taken from the colon and left as a sample. The colon length and colon weight were measured. A portion of the colon and the fecal sample was stored at −80° C.

[2] = test system: ulcerative colitis model (dextran sodium sulphate); assay: Effect Example 1: therapeutic effect on ulcerative colitis, dextran sodium sulphate model, injected treatment, 14 days; format: in vivo, C57 mice; conditions: for Average colon length of mice / Average colon weight of mice / Unit colon weight of mice (colon weight/colon length): day 14
Experimental: Thirty 10-week-old male C57 mice, SPF class animal house, temperature 20-26° C., humidity 40%-70%, alternating light-dark periods (12 h/12 h).
as §1
Mice in the blank control group were given normal drinking water throughout the experiment. The other 5 groups of mice were given drinking water containing 2% dextran sodium sulphate (DSS) from day 1 to day 5, normal drinking water from day 6 to day 7, drinking water containing 2% dextran sodium sulphate from day 8 to day 12, and normal drinking water from day 13 to day 14. The experiment ended on day 14.
Animals in the blank control group and ulcerative colitis model group were given sterile water intraperitoneally from day 1, once a day; the other 4 groups were administered according to table 1, once a day, until the end of the experiment on day 14. Two hours after the first day of administration, the mice were started to drink water containing dextran sodium sulphate.
as §2
(2) Blood samples were collected from the orbital vein on day 14 and stored at −80° C.
(3) On day 14, the mice were sacrificed by cervical vertebra dislocation, the colon was removed and a small amount of fecal was taken from the colon and left as a sample. The colon length and colon weight were measured. A portion of the colon and the fecal sample was stored at −80° C.

[3] = Day 1, high-dose treatment group 40 mg/kg intraperitoneal injection
[4] = Day 1, low-dose treatment group 10 mg/kg intraperitoneal injection
[5] = Day 1, middle-dose treatment group 20 mg/kg intraperitoneal injection
[6] = Day 2, high-dose treatment group 40 mg/kg intraperitoneal injection
[7] = Day 2, low-dose treatment group 10 mg/kg intraperitoneal injection
[8] = Day 2, middle-dose treatment group 20 mg/kg intraperitoneal injection
[9] = Day 3, high-dose treatment group 40 mg/kg intraperitoneal injection
[10] = Day 3, low-dose treatment group 10 mg/kg intraperitoneal injection
[11] = Day 3, middle-dose treatment group 20 mg/kg intraperitoneal injection
[12] = Day 4, high-dose treatment group 40 mg/kg intraperitoneal injection
[13] = Day 4, low-dose treatment group 10 mg/kg intraperitoneal injection
[14] = Day 4, middle-dose treatment group 20 mg/kg intraperitoneal injection
[15] = Day 5, high-dose treatment group 40 mg/kg intraperitoneal injection
[16] = Day 5, low-dose treatment group 10 mg/kg intraperitoneal injection
[17] = Day 5, middle-dose treatment group 20 mg/kg intraperitoneal injection
[18] = Day 6, high-dose treatment group 40 mg/kg intraperitoneal injection
[19] = Day 6, low-dose treatment group 10 mg/kg intraperitoneal injection
[20] = Day 6, middle-dose treatment group 20 mg/kg intraperitoneal injection
[21] = Day 7, high-dose treatment group 40 mg/kg intraperitoneal injection
[22] = Day 7, low-dose treatment group 10 mg/kg intraperitoneal injection
[23] = Day 7, middle-dose treatment group 20 mg/kg intraperitoneal injection
[24] = Day 8, high-dose treatment group 40 mg/kg intraperitoneal injection
[25] = Day 8, low-dose treatment group 10 mg/kg intraperitoneal injection
[26] = Day 8, middle-dose treatment group 20 mg/kg intraperitoneal injection
[27] = Day 9, high-dose treatment group 40 mg/kg intraperitoneal injection
[28] = Day 9, low-dose treatment group 10 mg/kg intraperitoneal injection
[29] = Day 9, middle-dose treatment group 20 mg/kg intraperitoneal injection
[30] = Day 10, high-dose treatment group 40 mg/kg intraperitoneal injection
[31] = Day 10, low-dose treatment group 10 mg/kg intraperitoneal injection
[32] = Day 10, middle-dose treatment group 20 mg/kg intraperitoneal injection
[33] = Day 11, high-dose treatment group 40 mg/kg intraperitoneal injection
[34] = Day 11, low-dose treatment group 10 mg/kg intraperitoneal injection
[35] = Day 11, middle-dose treatment group 20 mg/kg intraperitoneal injection
[36] = Day 12, high-dose treatment group 40 mg/kg intraperitoneal injection
[37] = Day 12, low-dose treatment group 10 mg/kg intraperitoneal injection
[38] = Day 12, middle-dose treatment group 20 mg/kg intraperitoneal injection
[39] = Day 13, high-dose treatment group 40 mg/kg intraperitoneal injection
[40] = Day 13, low-dose treatment group 10 mg/kg intraperitoneal injection
[41] = Day 13, middle-dose treatment group 20 mg/kg intraperitoneal injection
[42] = Day 14, high-dose treatment group 40 mg/kg intraperitoneal injection
[43] = Day 14, low-dose treatment group 10 mg/kg intraperitoneal injection
[44] = Day 14, middle-dose treatment group 20 mg/kg intraperitoneal injection
[45] = high-dose treatment group 40 mg/kg intraperitoneal injection
[46] = low-dose treatment group 10 mg/kg intraperitoneal injection
[47] = middle-dose treatment group 20 mg/kg intraperitoneal injection
[48] = intraperitoneal injection 10, 20, 40 mg/kg, vs ulcerative colitis model group

CC(C)=C1OC(C)=C(O[C@@H]2O[C@H](CO)[C@@H](O)[C@H](O)[C@H]2O)C1=O [Compound I-1, 4-O-β-D-glucosyl-5-methyl-2-(1-methylethylidene)-3(2H)-furanone]
Effect on the colon length (in words) [1]: can gradually restore the colon length | Average weight of mice ([1]; Day 1): 21.33 g | Average weight of mice ([1]; Day 2): 20.97 g | Average weight of mice ([1]; Day 3): 20.80 g | Average weight of mice ([1]; Day 4): 20.85 g | Average weight of mice ([1]; Day 5): 20.53 g | Average weight of mice ([1]; Day 6): 20.13 g | Average weight of mice ([1]; Day 7): 19.82 g | Average colon length of mice ([1]; day 7): 6.2 cm | Average weight of mice [2, 3]: 27.6 g | Rate of change in weight of mice [2, 3]: 100.0% | Average weight of mice [2, 4]: 27.9 g | Rate of change in weight of mice [2, 4]: 100.0% | Average weight of mice [2, 5]: 27.8 g | Rate of change in weight of mice [2, 5]: 100.0% | Average weight of mice [2, 6]: 27.6 g | Rate of change in weight of mice [2, 6]: 99.9% | Average weight of mice [2, 7]: 28.1 g | Rate of change in weight of mice [2, 7]: 100.6% | Average weight of mice [2, 8]: 27.8 g | Rate of change in weight of mice [2, 8]: 100.1% | Average weight of mice [2, 9]: 27.6 g | Rate of change in weight of mice [2, 9]: 100.0% | Average weight of mice [2, 10]: 28.0 g | Rate of change in weight of mice [2, 10]: 100.5% | Average weight of mice [2, 11]: 27.9 g | Rate of change in weight of mice [2, 11]: 100.3% | Average weight of mice [2, 12]: 27.6 g | Rate of change in weight of mice [2, 12]: 100.0% | Average weight of mice [2, 13]: 28.0 g | Rate of change in weight of mice [2, 13]: 100.3% | Average weight of mice [2, 14]: 27.9 g | Rate of change in weight of mice [2, 14]: 100.3% | Average weight of mice [2, 15]: 27.3 g | Rate of change in weight of mice [2, 15]: 99.1% | Average weight of mice [2, 16]: 27.2 g | Rate of change in weight of mice [2, 16]: 97.6% | Average weight of mice [2, 17]: 27.5 g | Rate of change in weight of mice [2, 17]: 99.1% | Average weight of mice [2, 18]: 27.2 g | Rate of change in weight of mice [2, 18]: 98.7% | Average weight of mice [2, 19]: 26.3 g | Rate of change in weight of mice [2, 19]: 94.3% | Average weight of mice [2, 20]: 27.2 g | Rate of change in weight of mice [2, 20]: 97.8% | Average weight of mice [2, 21]: 26.8 g | Rate of change in weight of mice [2, 21]: 97.0% | Average weight of mice [2, 22]: 25.9 g | Rate of change in weight of mice [2, 22]: 93.0% | Average weight of mice [2, 23]: 26.7 g | Rate of change in weight of mice [2, 23]: 96.0% | Average weight of mice [2, 24]: 26.3 g | Rate of change in weight of mice [2, 24]: 95.3% | Average weight of mice [2, 25]: 25.6 g | Rate of change in weight of mice [2, 25]: 91.6% | Average weight of mice [2, 26]: 26.2 g | Rate of change in weight of mice [2, 26]: 94.3% | Average weight of mice [2, 27]: 25.8 g | Rate of change in weight of mice [2, 27]: 93.5% | Average weight of mice [2, 28]: 25.3 g | Rate of change in weight of mice [2, 28]: 90.8% | Average weight of mice [2, 29]: 25.9 g | Rate of change in weight of mice [2, 29]: 93.2% | Average weight of mice [2, 30]: 25.6 g | Rate of change in weight of mice [2, 30]: 92.7% | Average weight of mice [2, 31]: 24.9 g | Rate of change in weight of mice [2, 31]: 89.1% | Average weight of mice [2, 32]: 25.6 g | Rate of change in weight of mice [2, 32]: 92.2% | Average weight of mice [2, 33]: 25.5 g | Rate of change in weight of mice [2, 33]: 92.2% | Average weight of mice [2, 34]: 24.4 g | Rate of change in weight of mice [2, 34]: 87.5% | Average weight of mice [2, 35]: 25.3 g | Rate of change in weight of mice [2, 35]: 91.1% | Average weight of mice [2, 36]: 25.4 g | Rate of change in weight of mice [2, 36]: 92.0% | Average weight of mice [2, 37]: 24.1 g | Rate of change in weight of mice [2, 37]: 86.4% | Average weight of mice [2, 38]: 25.0 g | Rate of change in weight of mice [2, 38]: 90.0% | Average weight of mice [2, 39]: 25.3 g | Rate of change in weight of mice [2, 39]: 91.5% | Average weight of mice [2, 40]: 23.8 g | Rate of change in weight of mice [2, 40]: 85.3% | Average weight of mice [2, 41]: 24.8 g | Rate of change in weight of mice [2, 41]: 89.2% | Average weight of mice [2, 42]: 25.2 g | Rate of change in weight of mice [2, 42]: 91.4% | Average weight of mice [2, 43]: 23.7 g | Rate of change in weight of mice [2, 43]: 84.9% | Average weight of mice [2, 44]: 24.7 g | Rate of change in weight of mice [2, 44]: 88.8% | Average colon length of mice [2, 45]: 6.52 cm | Average colon weight of mice [2, 45]: 0.2129 g | Unit colon weight of mice (colon weight/colon length) [2, 45]: 0.0327 g/cm | Average colon length of mice [2, 46]: 5.46 cm | Average colon weight of mice [2, 46]: 0.1909 g | Unit colon weight of mice (colon weight/colon length) [2, 46]: 0.0351 g/cm | Average colon length of mice [2, 47]: 6.04 cm | Average colon weight of mice [2, 47]: 0.2115 g | Unit colon weight of mice (colon weight/colon length) [2, 47]: 0.0351 g/cm | Colon length compared with the positive control group (in words) ([2]; high-dose treatment group 40 mg/kg intraperitoneal injection vs cyclosporine A 50 mg/kg): even better than the positive control group | Effect on the length of the colon (in words) [2, 48]: could gradually restore the length of the colon to normal | Effect on the reduction in the weight of mice (in words) [2, 48]: significant ameliorating effect on the reduction in the weight of mice | Effect on the unit colon weight (in words) [2, 48]: could significantly improve the unit colon weight
